Results taken from patent publication US7906515B2, “Cancer treatment with topoisomerase-II inhibitor, a bis-dioxypiperazine and radiation” (Topotarget A/S, priority 2004, dated 2011).
“Also recorded” adds a separate entry of the source. Like-named read-outs stand apart in the source and are kept apart here.

Tests used:
[1] = Histological evaluation of the blood brain barrier and blood tumour barrier by dye staining; format: in vivo; details: day 3 after tumour implantation; 5 mice per dye
Description: Following anaesthesia by hypnorm/dormicum 25 uL of Evans Blue Dye or 80 uL of Lissamine Green was administered by a tail-vein. After allowing the dye to circulate, animals were perfused transcardially with a 4% formalin solution for 5 minutes. The brain was kept in formalin 4%, and […] thick slices were cut on a vibratome and evaluated visually for staining. A check for positive stain of organs was performed before inclusion of the animal in the evaluation of staining of the brain and tumour. Evans Blue Dye and Lissamine Green were obtained from Sigma-Aldrich (Vallensbaek, DK) and prepared fresh as a 2% solution in isotonic saline.
(§1) Experiments with Evans blue dye, Lissamine Green and 3H-etoposide were done on day 3, with preparations as described for treatment efficacy experiments.

topoisomerase-II = details: in vitro, cited from earlier work
[2] = tested on: Ehrlich Ascites tumour cells; test: Treatment efficacy: survival of mice with intracerebrally implanted Ehrlich Ascites tumour; format: in vivo, B6D2F1 female mice
Description: B6D2F1 female mice from Taconic M&B (Ry, Denmark) were housed in cages of 9 with free access to water and Altromi laboratory diet from Brogaarden (Gentofte, DK). They weighed 19-22 grams at inclusion in protocol. Animals that deteriorated clinically during the experiment were euthanised, and the experiments were approved by the Danish Animal Experimentation Inspectorate.
A total of 15×10^4 Ehrlich Ascites tumour cells in 30 uL saline were implanted into the right temporal hemisphere during short CO2 anaesthesia on day 0 and treated on day 3. Treatment was scheduled as follows: dexrazoxane at t=0, etoposide at t=20 minutes and radiation treatment at t=50 minutes. Before the radiotherapy procedure a light anaesthesia was administered, to achieve compliance.
This way we obtained a simple and reliable method of comparison.
Efficacy of chemoradiotherapy compared to radiotherapy alone was calculated as: […]
Median survival after chemotherapy compared to radiotherapy alone was calculated as:
The absolute numeric difference in median survival time after chemotherapy alone compared to radiotherapy alone was simply calculated as: Difference in survival (days)=MS radiotherapy−MS chemotherapy Eq. 3)
Survival times within the separate experimental treatment groups were compiled, and presented in Kaplan-Meier plots. P-values from Logrank tests comparing survival in experimental groups compared to radiotherapy alone are shown.
The dose-rate was 4.7 Gy/minute.
Dexrazoxane (Zinecard®) was obtained from Pharmacia (Kalamazoo, Mich.) and further diluted in Ringer-lactate. Etoposide (Vepesid™) was obtained as a ready to administer liquid solution from Pharmacia A/S (Copenhagen, DK) and diluted to final concentration in isotonic saline. 3H-etoposide was obtained from Moravek (Calif., USA) and kept at −20° C. All drugs were administered by the intra-peritoneal (ip.) route.

[3] = tested on: Ehrlich Ascites tumour cells; test: Clonogenic survival in soft agar after drug with or without concurrent radiotherapy; details: for Cell-kill interaction of etoposide with radiotherapy: increasing concentrations of etoposide, 150 minutes exposure
[4] = Brain and tumour uptake using tritiated etoposide; format: in vivo, mice; details: ten minutes after ip administration
Description: Tritium-labelled etoposide was mixed with either “cold” etoposide 9.0 mg/ml, “cold” etoposide 0.9 mg/ml or isotonic saline, all in a final volume of 200 uL. Ten minutes after the administration mice were anaesthetized by CO2, blood was collected and plasma was separated. […] Tumour and unaffected contra-lateral brain were removed under a surgical microscope, weighed and sonicated. Activity was measured in a liquid scintillation counter from Packard (US), and counts/gram in brain and tumour was compared to concurrent plasma values.
as §1

[5] = Etoposide area under the curve after intra-peritoneal treatment; format: in vivo; details: own experiments, data unpublished
Description: Following intra-peritoneal treatment with etoposide, approximately 95% of the total etoposide area under the curve is covered within 150 minutes after administration (own experiments, data unpublished). […] Ehrlich Ascites tumour cells were incubated in etoposide or dexrazoxane for 30 minutes before irradiation, and then allowed further 120 minutes post-irradiation drug incubation, resulting in a total duration of exposure of 150 minutes.

topoisomerase II = details: cited from earlier work
[6] = tested on: brain metastasis from SCLC; details: cited from earlier work
[7] = concurrent teniposide and WBRT, phase III trial

Cc1cc(-c2ccc(/N=N/c3ccc4c(S(=O)(=O)[O-])cc(S(=O)(=O)[O-])c(N)c4c3O)c(C)c2)ccc1/N=N/c1ccc2c(S(=O)(=O)[O-])cc(S(=O)(=O)[O-])c(N)c2c1O.[Na+].[Na+].[Na+].[Na+] [Evans blue dye]
Colouration of brain or tumour tissue after tail-vein administration [1]: no colouration of brain or tumour tissue

CN(C)c1ccc(C(=C2C=CC(=[N+](C)C)C=C2)c2c(O)c(S(=O)(=O)[O-])cc3cc(S(=O)(=O)[O-])ccc23)cc1.[Na+] [Lissamine Green]
Colouration of brain or tumour tissue after tail-vein administration [1]: no colouration of brain or tumour tissue

C[C@@H](CN1CC(=O)NC(=O)C1)N1CC(=O)NC(=O)C1 [dexrazoxane, (S)-(+)-1,2-Bis(3,5-dioxopiperazin-1-yl)propane]
Effect on toxicity from etoposide in clonogenic assay (topoisomerase-II): antagonises toxicity from etoposide | Formation of DNA strand breaks induced by topoisomerase-II poisons (topoisomerase-II): inhibits the formation of DNA strand breaks | Survival after drug alone ([2]; dexrazoxane 125 mg/kg alone): increased survival a little | Effect on survival in combination with radiotherapy ([2]; dexrazoxane 125 mg/kg and concurrent 10 Gy): neither dexrazoxane 125 mg/kg (FIG. 1D) nor solvent affected survival in combination with radiotherapy | Difference in survival, days lost from ineffective treatment (Eq. 3) ([2]; dexrazoxane 125 mg/kg ip alone, compared to radiotherapy): 5 days | Toxicity of drug alone in clonogenic survival ([3]; dexrazoxane alone): non-toxic | Radio-enhancing effect in clonogenic survival ([3]; fixed doses of dexrazoxane 25 μM or 125 μM, increasing radiotherapy doses): no radio-enhancing effect; also recorded: no effect at all

COc1cc([C@@H]2c3cc4c(cc3[C@@H](O[C@@H]3O[C@@H]5CO[C@@H](C)O[C@H]5[C@H](O)[C@H]3O)[C@H]3COC(=O)[C@H]23)OCO4)cc(OC)c1O [etoposide, 9-[[4,6-O-(1R)-ethylidene-β-D-glucopyranosyl]oxy]-5,8,8a,9-tetrahydro-5-(4-hydroxy-3,5-dimethoxyphenyl)-(5R,5aR,8aR,9S)-furo[3′,4′:6,7]naphtho[2,3-d]-1,3-dioxol-6(5aH)-one]
Cell-kill of etoposide in combination with radiotherapy (topoisomerase-II; literature): synergistic cell-kill | Survival after drug alone ([2]; etoposide 34 mg/kg alone): increased survival | Effect on survival from radiotherapy ([2]; etoposide 34 mg/kg and concurrent 10 Gy): did not enhance survival from radiotherapy | Interaction by combination index (Chou and Talalay) ([3]; increasing concentrations of etoposide with radiotherapy): synergism | Cell-kill interaction of etoposide with radiotherapy ([3]; 1.25 Gy): did not result in an increased cell-kill | Cell-kill interaction of etoposide with radiotherapy ([3]; 7.5 Gy): synergistic cell-kill; also recorded: supra-additive cell-kill | Interaction by combination index (Chou and Talalay) ([3]; lowest concentrations of etoposide with radiotherapy): antagonistic | Influence of dose, vehicle or dexrazoxane pre-treatment on uptake in tumour [4]: no influence on uptake in tumour | Tumour drug uptake compared to brain [4]: higher than in brain, but statistically insignificant, except after treatment with the low dose of etoposide | Brain/plasma ratio of 3H-etoposide ([4]; etoposide dose-escalation or dexrazoxane 125 mg/kg pre-treatment): Neither etoposide dose-escalation nor pre-treatment with dexrazoxane altered the brain/plasma ratio | Share of total etoposide area under the curve covered within 150 minutes after administration [5]: approximately 95%

COc1cc([C@@H]2c3cc4c(cc3[C@@H](O[C@@H]3O[C@@H]5CO[C@@H](c6cccs6)O[C@H]5[C@H](O)[C@H]3O)[C@H]3COC(=O)[C@H]23)OCO4)cc(OC)c1O [teniposide]
Potency relative to VP-16 (topoisomerase II): about 10 fold | Time to cerebral progression ([6]; concurrent teniposide and WBRT versus teniposide alone): significantly increased | Median survival [6, 7]: 3.5 months | Response rate [6, 7]: 57% | Response rate ([6]; teniposide 150 mg/m^2 day 1, 3 and 5, alone, phase II): 33% | Median survival ([6]; teniposide alone, phase III trial): 3.2 months
